Data on 3 molecules can be found in US20120041006A1, “Compositions for Raising Uric Acid Levels and Methods of Using the Same” (priority 1998, published 2012).

Each structure is given as a SMILES string.

Assay [1] can be described thus: Chickens given allopurinol to lower uric acid; glycosylation damage. The assay is classed as in vivo. Here is the method: The following example was conducted to establish the role of uric acid in protecting against the sequelia associated with diabetic damage. It is established that this sequelia occurs in diabetic patients due to increases in sugar levels that result from either the insufficient production of insulin or the insufficient breakdown of sugar by the insulin, depending of the type of diabetes. Sugar, in excess conditions, can become an oxidizer, which leads to oxidative damage in a patient. Glycosylated hemoglobin (HBA1C) is used to measure the amount of oxidative damage that results from excess sugar in a patient; increased (HBA1C) is the definition used for diabetes. […] Chickens are known to have excessively high sugar levels, and should be essentially in a diabetic state. […] To confirm the causal relationship between high levels of uric acid and prevention of glycosylation damage, chickens were given allopurinol. This compound specifically […].

Assay [2] can be described thus: Oral uric acid precursor in a person with Alzheimer's. As to conditions: one Alzheimer's patient; 500-1,000 mg orally per day; upon raising uric acid levels. The assay is classed as in vivo, human.

Consider `Oc1ncnc2[nH]ncc12` [allopurinol], for which the “signs of diabetic complications” value in assay [1] (after uric acid reduced to below normal levels) was “exhibited signs of diabetic complications”. Besides, the uric acid levels entry in assay [1] (enough administered to effect significant conversion of uric acid) is listed as “lowering of uric acid levels”. Also, the “levels of the chicken equivalent of A1C (glycosylated hemoglobin)” value in assay [1] (once uric acid reduced to below normal levels) was “increased dramatically”.

With `O=c1[nH]cnc2nc[nH]c12` [hypoxanthine], in assay [2], the “Alzheimer symptoms (not recognizing bathroom, incontinence, general cognitive decline)” value was “reduced”.

With `OC[C@H]1O[C@@H](n2cnc3c(O)ncnc32)[C@H](O)[C@@H]1O` [inosine], the “Alzheimer symptoms (not recognizing bathroom, incontinence, general cognitive decline)” value in assay [2] is “reduced”.
